According to patent US8580941B2, “Epididymal lipocalin gene and uses thereof” (Vanderbilt University, priority 2000, dated 2013):

System: mEP17 protein
Assay: Regulation of mEP17 protein expression (Western blotting and immunohistochemistry) in treated mice
Format: in vivo, mouse
Text: The regulation of mEP17 protein expression was investigated using Western blotting and immunohistochemistry in castrated mice, castrated testosterone supplemented mice, unilateral castrated mice, unilateral cryptorchid mice, and busulphan-treated mice. As previously observed at the mRNA level (FIGS. 15A-15C), mEP17 protein disappeared from the initial segment two days after bilateral castration and was not restored by testosterone treatment. Similarly, after unilateral castration, mEP17 protein disappeared from the castrated side, but not from the non-castrated side.
To determine whether germ cell-associated testicular factors can regulate mEP17, spermatogenesis was disrupted using cryptorchidism or busulphan treatment. One month following cryptorchidism, mEP17 protein was not detected in the initial segment of the cryptorchid epididymis but was detected at normal levels in the scrotal epididymis. In cryptorchidism, the testis and the epididymis are exposed to abdominal temperature. To distinguish the effects of abdominal temperature on the testis or epididymis, spermatogenesis was also disrupted by busulphan treatment.

Row | Compound | mEP17 protein in the initial segment of the epididymis after testosterone treatment (castrated testosterone supplemented mice, protein disappeared two days after bilateral castration) | level of mEP17 protein compared to untreated controls (busulphan-treated mice, following a 35-day treatment (disruption of spermatogenesis))
1 | C[C@]12CC[C@H]3[C@@H](CCC4=CC(=O)CC[C@@]43C)[C@@H]1CC[C@@H]2O [testosterone] | not restored | 
2 | CS(=O)(=O)OCCCCOS(C)(=O)=O [busulphan] |  | drastically reduced
